Assay results taken from the NIST ThermoML archive (doi:10.1016/j.jct.2016.10.023).

Test: xn = mol fraction of the nth substance listed
Settings: Constant-volume piezometry

CCCCC [pentane] + CCCO
Settings	mass density [kg/m3]
433.15 K, 35839 kPa, Liquid, x1 = 0.5	609.23
433.15 K, 36095 kPa, Liquid, x1 = 0.2	661.31
433.15 K, 41420 kPa, Liquid, x1 = 0.8	572.89
437.15 K, 2040 kPa, Gas, x1 = 0.8	58.65
438.15 K, 1323 kPa, Gas, x1 = 0.5	30.1
438.15 K, 2052 kPa, Gas, x1 = 0.8	58.65
438.15 K, 2515 kPa, Liquid, x1 = 0.5	509.1
440.15 K, 2121 kPa, Liquid, x1 = 0.2	584.41
443.15 K, 781 kPa, Gas, x1 = 0.5	15.58
443.15 K, 1062 kPa, Gas, x1 = 0.8	22.61
443.15 K, 1353 kPa, Gas, x1 = 0.5	30.1
443.15 K, 1529 kPa, Gas, x1 = 0.8	36.83
443.15 K, 2108 kPa, Gas, x1 = 0.8	58.64
443.15 K, 3419 kPa, Liquid, x1 = 0.2	584.3
443.15 K, 4067 kPa, Liquid, x1 = 0.5	508.96
443.15 K, 5776 kPa, Liquid, x1 = 0.5	521.85
443.15 K, 6119 kPa, Liquid, x1 = 0.8	468.84
443.15 K, 7864 kPa, Liquid, x1 = 0.2	598.01
443.15 K, 11620 kPa, Liquid, x1 = 0.8	498.47
443.15 K, 13293 kPa, Liquid, x1 = 0.5	550.88
443.15 K, 15549 kPa, Liquid, x1 = 0.2	617.55
443.15 K, 19116 kPa, Liquid, x1 = 0.8	523.16
443.15 K, 24271 kPa, Liquid, x1 = 0.5	577.21
443.15 K, 29321 kPa, Liquid, x1 = 0.2	638.71
443.15 K, 31113 kPa, Liquid, x1 = 0.5	589.73
443.15 K, 32587 kPa, Liquid, x1 = 0.8	550.89
443.15 K, 37375 kPa, Liquid, x1 = 0.5	600.38
443.15 K, 43094 kPa, Liquid, x1 = 0.2	660.83
446.15 K, 2393 kPa, Gas, x1 = 0.8	74.06
447.15 K, 1740 kPa, Gas, x1 = 0.5	40.63
448.15 K, 1748 kPa, Gas, x1 = 0.5	40.63
448.15 K, 2548 kPa, Liquid, x1 = 0.9	408.95
448.15 K, 2624 kPa, Liquid, x1 = 0.8	419.92
449.15 K, 2796 kPa, Liquid, x1 = 0.8	419.9
451.15 K, 2529 kPa, Gas, x1 = 0.9	83.67
452.15 K, 2545 kPa, Gas, x1 = 0.9	83.66
453.15 K, 804 kPa, Gas, x1 = 0.5	15.57
453.15 K, 1101 kPa, Gas, x1 = 0.8	22.6
453.15 K, 1255 kPa, Gas, x1 = 0.2	25.01
453.15 K, 1405 kPa, Gas, x1 = 0.5	30.08
453.15 K, 1584 kPa, Gas, x1 = 0.8	36.81
453.15 K, 1789 kPa, Gas, x1 = 0.5	40.62
453.15 K, 2048 kPa, Gas, x1 = 0.5	51.26
453.15 K, 2206 kPa, Gas, x1 = 0.8	58.61
453.15 K, 2494 kPa, Gas, x1 = 0.8	74.04
453.15 K, 2562 kPa, Gas, x1 = 0.9	83.66
453.15 K, 3375 kPa, Liquid, x1 = 0.9	408.84
453.15 K, 3511 kPa, Liquid, x1 = 0.8	419.81
453.15 K, 7204 kPa, Liquid, x1 = 0.5	508.66
453.15 K, 7807 kPa, Liquid, x1 = 0.2	583.93
453.15 K, 8728 kPa, Liquid, x1 = 0.8	468.58
453.15 K, 9366 kPa, Liquid, x1 = 0.5	521.54
453.15 K, 12785 kPa, Liquid, x1 = 0.2	597.62
453.15 K, 14688 kPa, Liquid, x1 = 0.8	498.18
453.15 K, 17282 kPa, Liquid, x1 = 0.5	550.54
453.15 K, 21030 kPa, Liquid, x1 = 0.2	617.14
453.15 K, 22882 kPa, Liquid, x1 = 0.8	522.84
453.15 K, 28840 kPa, Liquid, x1 = 0.5	576.84
453.15 K, 34516 kPa, Liquid, x1 = 0.2	638.29
453.15 K, 37125 kPa, Liquid, x1 = 0.8	550.54
455.15 K, 2058 kPa, Gas, x1 = 0.5	51.26
455.15 K, 2617 kPa, Liquid, x1 = 0.5	469.97
459.15 K, 2107 kPa, Liquid, x1 = 0.2	549.17
459.25 K, 2109 kPa, Liquid, x1 = 0.2	549.17
460.15 K, 2449 kPa, Liquid, x1 = 0.2	549.14
461.15 K, 3036 kPa, Gas, x1 = 0.8	106.72
463.15 K, 825 kPa, Gas, x1 = 0.5	15.56

Liquid
Settings	mass density [kg/m3]
438.95 K, x1 = 0.2	584.46
446.85 K, x1 = 0.8	419.95
447.55 K, x1 = 0.9	408.96
454.85 K, x1 = 0.5	469.97
458.15 K, x1 = 0.2	549.2
462.15 K, x1 = 0.5	452.82
462.85 K, x1 = 0.9	355.24
